One experiment has as its target human orexin 1 receptor (Homo sapiens, UniProt O43613). The experiment is described as follows: Human orexin 1 receptor radioligand binding. The note with it: read-out: hOX1 Ki. On the procedure:
Data are analyzed using pc-Sandy macro and graphed on Graphpad Prism 5. For analysis, each concentration point is averaged from triplicate values and the averaged values are plotted on Graphpad Prism. The IC50 was determined by applying the following equation (GraphPad Prism 5.0, SanDiego) for one site competition where X=log (concentration) and Y=specific binding. Top denotes the total [^3H]-(1-(5-(2-fluoro-phenyl)-2-methyl-thiazol-4-yl)-1-((S)-2-(5-phenyl-(1,3,4)oxadiazol-2-ylmethyl)-pyrrolidin-1-yl)-methanone) binding, bottom denotes the nonspecific [^3H]-(1-(5-(2-fluoro-phenyl)-2-methyl-thiazol-4-yl)-1-((S)-2-(5-phenyl-(1,3,4)oxadiazol-2-ylmethyl)-pyrrolidin-1-yl)-methanone) binding. Graphpad Prism calculates Ki value from IC50 and the pre-determined Kd values for [^3H]-(1-(5-(2-fluoro-phenyl)-2-methyl-thiazol-4-yl)-1-((S)-2-(5-phenyl-(1,3,4)oxadiazol-2-ylmethyl)-pyrrolidin-1-yl)-methanone) and [3H]-EMPA. The Ki for each compound is then uploaded into 3DX. Each run comprises individual compounds in triplicate. The data in Table 1 and Table 2 represent averages from between 2-20 runs
Rat and Human Orexin 1 Receptor Radioligand Binding Studies
After centrifugation (2K×G, 5 min at 4° C.), the supernatant was aspirated and the pellets frozen and stored at −80° C. […] Each cell pellet from a 15 cm plate was resuspended in 10 mL, stored on ice, and homogenized for 45 sec prior to addition to the reactions. […] The final concentration of DMSO in the reactions is equal to or less than 0.1%. Total and nonspecific binding was determined in the absence and presence of 10 μM almorexant. The total volume of each reaction is 200 μL (20 μL of diluted compounds, 80 μL of [^3H]-(1-(5-(2-fluoro-phenyl)-2-methyl-thiazol-4-yl)-1-((S)-2-(5-phenyl-(1,3,4)oxadiazol-2-ylmethyl)-pyrrolidin-1-yl)-methanone) diluted in PBS and 100 μL of the cell suspension). […] The plates were washed 3 times by aspirating 30 ml PBS through the plates. Plates were dried in 55° C. oven for 60 min, scintillation fluid was added, and the radioactivity was counted on a Topcount (Packard).

The target in the next experiment is human orexin 2 receptor (Homo sapiens (Human), UniProt O43614). As to the kind of experiment: Human orexin 2 receptor radioligand binding. As to conditions: read-out: hOX2 Ki. The essentials:
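HEK293 cells stably expressing human OX2 receptor, homogenized, incubated with [3H]-EMPA and compounds (DMSO ≤0.1%); nonspecific binding with 10 μM almorexant. Filter-bound radioactivity counted by scintillation; IC50 from one-site competition fit of triplicates, Ki from IC50 and predetermined radioligand Kd, averaged over 2-20 runs.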

The target of another experiment is rat orexin 1 receptor (Rattus norvegicus, UniProt P56718). The experiment is described as follows: Rat orexin 1 receptor radioligand binding. The note with it: read-out: rOX1 Ki. The essentials:
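Competition binding with the tritiated thiazolyl-pyrrolidinyl-methanone radioligand in PBS on homogenized rat or human OX1R-expressing cell suspensions, ≤0.1% DMSO; nonspecific binding defined with 10 μM almorexant. Bound radioactivity read by scintillation after filtration; IC50 from one-site competition fit, converted to Ki using pre-determined radioligand Kd.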

[1] abbreviates: human orexin 1 receptor, averages of 2-20 runs.
Where [2] appears, read: human orexin 2 receptor, averages of 2-20 runs.
The mark [3] stands for this setting: rat orexin 1 receptor, averages of 2-20 runs.

Consider 16 compounds from patent US9611277B2 (Janssen Pharmaceutica NV, priority 2013, dated 2017).

Read-outs that look alike come from different tables or passages of the source.

One may read the Ki as a measure of affinity in units of concentration, obtained from inhibition or displacement.

human orexin 2 receptor, sequence (O43614 whole entry): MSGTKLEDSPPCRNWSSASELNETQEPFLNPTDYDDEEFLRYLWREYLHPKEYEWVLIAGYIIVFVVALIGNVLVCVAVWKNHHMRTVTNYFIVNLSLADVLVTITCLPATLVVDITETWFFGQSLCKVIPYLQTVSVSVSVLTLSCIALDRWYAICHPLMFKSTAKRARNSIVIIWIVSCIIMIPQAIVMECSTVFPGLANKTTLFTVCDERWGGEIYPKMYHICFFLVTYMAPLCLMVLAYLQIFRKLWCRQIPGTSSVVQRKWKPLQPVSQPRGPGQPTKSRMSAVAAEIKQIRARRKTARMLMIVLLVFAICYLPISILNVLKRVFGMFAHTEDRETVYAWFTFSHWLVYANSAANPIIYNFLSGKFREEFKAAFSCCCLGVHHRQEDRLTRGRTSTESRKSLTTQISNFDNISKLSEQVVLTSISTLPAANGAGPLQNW

In the case of `O=C(c1cccc(F)c1-c1ncccn1)N1C[C@@H]2CC[C@H]1[C@H](Oc1cnc(C(F)(F)F)cn1)C2` [Example 74, (3-fluoro-2-(pyrimidin-2-yl)phenyl)((1S,4R,6R)-6-((5-(trifluoromethyl)pyrazin-2-yl)oxy)-2-azabicyclo[2.2.2]octan-2-yl)methanone], the results for the Ki on human orexin 1 receptor (setting [1]), at human orexin 2 receptor (setting [2]) and at rat orexin 1 receptor (setting [3]) were 16 nM, 1800 nM and 16 nM, respectively.

As for `Cc1ccc(-n2nccn2)c(C(=O)N2C[C@@H]3CC[C@H]2[C@H](Oc2ccc(C(F)(F)F)cn2)C3)n1` [Example 76, (6-methyl-3-(2H-1,2,3-triazol-2-yl)pyridin-2-yl)((1S,4R,6R)-6-((5-(trifluoromethyl)pyridin-2-yl)oxy)-2-azabicyclo[2.2.2]octan-2-yl)methanone], the values for the Ki at human orexin 1 receptor, on human orexin 2 receptor and at rat orexin 1 receptor were 3 nM, 211 nM and 4 nM, respectively.

As for `Cc1ccc(-n2nccn2)c(C(=O)N2C[C@@H]3CC[C@H]2[C@H](Oc2cnc(C(F)(F)F)cn2)C3)n1` [Example 77, (6-methyl-3-(2H-1,2,3-triazol-2-yl)pyridin-2-yl)((1S,4R,6R)-6-((5-(trifluoromethyl)pyrazin-2-yl)oxy)-2-azabicyclo[2.2.2]octan-2-yl)methanone], the Ki on human orexin 1 receptor (setting [1]) was 13 nM; at human orexin 2 receptor (setting [2]), 1700 nM; on rat orexin 1 receptor (setting [3]), 9 nM.

On to `O=C(c1cccnc1-n1nccn1)N1C[C@H]2C[C@@H](Oc3ccc(C(F)(F)F)cn3)[C@@H]1C2` [Example 87, (2-(2H-1,2,3-triazol-2-yl)pyridin-3-yl)((1S,4R,6R)-6-((5-(trifluoromethyl)pyridin-2-yl)oxy)-2-azabicyclo[2.2.1]heptan-2-yl)methanone], for which the figures for the Ki at human orexin 1 receptor (setting [1]), on human orexin 2 receptor (setting [2]) and on rat orexin 1 receptor (setting [3]) were 211 nM, > 10000 nM and 156 nM, respectively.

Take `Cc1cnc(-n2nccn2)c(C(=O)N2C[C@H]3C[C@@H](Oc4ccc(C(F)(F)F)cn4)[C@@H]2C3)c1` [Example 88, (5-methyl-2-(2H-1,2,3-triazol-2-yl)pyridin-3-yl)((1S,4R,6R)-6-((5-(trifluoromethyl)pyridin-2-yl)oxy)-2-azabicyclo[2.2.1]heptan-2-yl)methanone]: the figures for the Ki on human orexin 1 receptor (setting [1]), on human orexin 2 receptor (setting [2]) and at rat orexin 1 receptor (setting [3]) were 36 nM, > 10000 nM and 45 nM, respectively.

Regarding `O=C(c1ccccc1-c1ncc(F)cn1)N1C[C@H]2C[C@@H](Oc3ccc(C(F)(F)F)cn3)[C@@H]1C2` [Example 89, (2-(5-fluoropyrimidin-2-yl)phenyl)((1S,4R,6R)-6-((5-(trifluoromethyl)pyridin-2-yl)oxy)-2-azabicyclo[2.2.1]heptan-2-yl)methanone], the inhibition constant (Ki) on human orexin 1 receptor (setting [1]) turned out to be 8 nM; on human orexin 2 receptor (setting [2]) it was 1100 nM; at rat orexin 1 receptor (setting [3]) it was 18 nM.

On to `O=C(c1cccc(F)c1-c1ncc(F)cn1)N1C[C@H]2C[C@@H](Oc3ccc(C(F)(F)F)cn3)[C@@H]1C2` [Example 90, (3-fluoro-2-(5-fluoropyrimidin-2-yl)phenyl)((1S,4R,6R)-6-((5-(trifluoromethyl)pyridin-2-yl)oxy)-2-azabicyclo[2.2.1]heptan-2-yl)methanone], for which the values for the inhibitory constant (Ki) at human orexin 1 receptor (setting [1]), on human orexin 2 receptor (setting [2]) and on rat orexin 1 receptor (setting [3]) were 19 nM, 2150 nM and 15 nM, respectively.

With `Cc1cccc(C(=O)N2C[C@H]3C[C@@H](Oc4ccc(C(F)(F)F)cn4)[C@@H]2C3)c1-c1ncc(F)cn1` [Example 91, (2-(5-fluoropyrimidin-2-yl)-3-methylphenyl)((1S,4R,6R)-6-((5-(trifluoromethyl)pyridin-2-yl)oxy)-2-azabicyclo[2.2.1]heptan-2-yl)methanone], the Ki on human orexin 1 receptor (setting [1]) amounted to 6 nM; at human orexin 2 receptor (setting [2]) it was 331 nM; on rat orexin 1 receptor (setting [3]), 8 nM.

Turning to `Cc1ccc(-c2ncccn2)c(C(=O)N2C[C@H]3C[C@@H](Oc4ccc(C(F)(F)F)cn4)[C@@H]2C3)n1` [Example 92, (6-methyl-3-(pyrimidin-2-yl)pyridin-2-yl)((1S,4R,6R)-6-((5-(trifluoromethyl)pyridin-2-yl)oxy)-2-azabicyclo[2.2.1]heptan-2-yl)methanone], the Ki is 19 nM at human orexin 1 receptor (setting [1]), 362 nM at human orexin 2 receptor (setting [2]) and 13 nM at rat orexin 1 receptor (setting [3]).

Turning to `O=C(c1nccnc1-c1ccccc1)N1C[C@H]2C[C@@H](Oc3ccc(C(F)(F)F)cn3)[C@@H]1C2` [Example 93, (3-phenylpyrazin-2-yl)((1S,4R,6R)-6-((5-(trifluoromethyl)pyridin-2-yl)oxy)-2-azabicyclo[2.2.1]heptan-2-yl)methanone], the inhibition constant (Ki) at human orexin 1 receptor (setting [1]) amounted to 76 nM; at human orexin 2 receptor (setting [2]), 3100 nM; at rat orexin 1 receptor (setting [3]) it was 125 nM.

As to `O=C(c1cccc(F)c1-c1ncccn1)N1C[C@H]2C[C@@H](Oc3cccc(C(F)(F)F)n3)[C@@H]1C2` [Example 94, (3-fluoro-2-(pyrimidin-2-yl)phenyl)((1S,4R,6R)-6-((6-(trifluoromethyl)pyridin-2-yl)oxy)-2-azabicyclo[2.2.1]heptan-2-yl)methanone], the Ki on human orexin 1 receptor (setting [1]) turned out to be 30 nM; on human orexin 2 receptor (setting [2]) it was 848 nM; at rat orexin 1 receptor (setting [3]), 35 nM.

As to `O=C(c1cccc(F)c1-c1ncccn1)N1C[C@H]2C[C@@H](Oc3cc(C(F)(F)F)ccn3)[C@@H]1C2` [Example 95, (3-fluoro-2-(pyrimidin-2-yl)phenyl)((1S,4R,6R)-6-((4-(trifluoromethyl)pyridin-2-yl)oxy)-2-azabicyclo[2.2.1]heptan-2-yl)methanone], the inhibition constant (Ki) on human orexin 1 receptor (setting [1]) came to 37 nM; on human orexin 2 receptor (setting [2]), 137 nM; on rat orexin 1 receptor (setting [3]), 29 nM.

As for `O=C(c1ccccc1-n1nccn1)N1C[C@H]2C[C@@H](Oc3ncc(C(F)(F)F)cc3F)[C@@H]1C2` [Example 97, (2-(2H-1,2,3-triazol-2-yl)phenyl)((1S,4R,6R)-6-((3-fluoro-5-(trifluoromethyl)pyridin-2-yl)oxy)-2-azabicyclo[2.2.1]heptan-2-yl)methanone], the Ki on human orexin 1 receptor (setting [1]) was determined as 15 nM; on human orexin 2 receptor (setting [2]), 1100 nM; on rat orexin 1 receptor (setting [3]), 21 nM.

As to `Cc1ccc(-n2nccn2)c(C(=O)N2CC3CC(Oc4ncc(C(F)(F)F)cc4F)C2C3)n1` [Example 98, (1S,4R,6R)-6-((3-fluoro-5-(trifluoromethyl)pyridin-2-yl)oxy)-2-azabicyclo[2.2.1]heptan-2-yl)(6-methyl-3-(2H-1,2,3-triazol-2-yl)pyridin-2-yl)methanone], the Ki on human orexin 1 receptor (setting [1]) came out at 28 nM; on human orexin 2 receptor (setting [2]) it was 1200 nM; at rat orexin 1 receptor (setting [3]), 37 nM.

Regarding `O=C(c1ccccc1-c1ncccn1)N1C[C@H]2C[C@@H](Oc3ncc(C(F)(F)F)cc3F)[C@@H]1C2` [Example 99, ((1S,4R,6R)-6-((3-fluoro-5-(trifluoromethyl)pyridin-2-yl)oxy)-2-azabicyclo[2.2.1]heptan-2-yl)(2-(pyrimidin-2-yl)phenyl)methanone], the inhibitory constant (Ki) at human orexin 1 receptor (setting [1]) turned out to be 10 nM; at human orexin 2 receptor (setting [2]), 725 nM; at rat orexin 1 receptor (setting [3]), 11 nM.

Take `O=C(c1cccc(F)c1-c1ncccn1)N1C[C@H]2C[C@@H](Oc3ncc(C(F)(F)F)cc3F)[C@@H]1C2` [Example 100, (3-fluoro-2-(pyrimidin-2-yl)phenyl)((1S,4R,6R)-6-((3-fluoro-5-(trifluoromethyl)pyridin-2-yl)oxy)-2-azabicyclo[2.2.1]heptan-2-yl)methanone]: the Ki on human orexin 1 receptor (setting [1]) turned out to be 12 nM; on human orexin 2 receptor (setting [2]) it was 1600 nM; at rat orexin 1 receptor (setting [3]), 13 nM.
